Reference: patent US8865776B2, “Use of low molecular weight amino alcohols in ophthalmic compositions” (Alcon Research, Ltd., priority 1996, dated 2014)

Tested on: S. marcescens
Assay: Anti-microbial activity, log reduction of survivors after inoculation
Assay type: cell-based
Settings: 6 hours, saline solution with 1.2% amino alcohol, 0.3% sodium chloride, 0.05% disodium edetate, pH 7.4
Experimental: The antibacterial activity of the above-described saline solutions against S. marcescens was evaluated. The formulations were evaluated by inoculating 20 ml of each solution with 0.1 ml of a microbial suspension. The final concentration was 10^6 colony forming units (“CPUs”) per ml. At each time point, pour plates of SCDA were prepared containing diluted aliquots of the various test samples. The bacteria and yeast plates were incubated at 30° to 35° C. for 2 to 3 days. The mold plates were incubated at 20° to 25° C. for five days. Following the colony incubation period, the number of CFUs were counted and the log reduction of the CFUs relative to the starting amount was calculated. The anti-microbial activity of the formulations against S. marcescens and P. aeruginosa was evaluated.

| SMILES | Log Reduction of Survivors [log] |
| --- | --- |
| CCC(N)(CO)CO [AEPD, 2-amino-2-ethyl-1,3-propanediol] | 0.0 |
| CC(C)(N)CO [AMP, 2-amino-2-methyl-1-propanol] | 0.1 |
| CC(N)(CO)CO [AMPD, 2-amino-2-methyl-1,3-propanediol] | 0.0 |
| OCCN1CCN(CCO)CC1 [BHP, 1,4-Bis(2-hydroxyethyl)-piperazine, reference compound] | 0.1 |
| CN(C)C(C)(C)CO [DMAMP, 2-dimethylamino-methyl-1-propanol] | 0.0 |

Same assay, conditions: 24 hours, saline solution with 1.2% amino alcohol, 0.3% sodium chloride, 0.05% disodium edetate, pH 7.4

| SMILES | Log Reduction of Survivors [log] |
| --- | --- |
| CCC(N)(CO)CO [AEPD, 2-amino-2-ethyl-1,3-propanediol] | 0.7 |
| CC(C)(N)CO [AMP, 2-amino-2-methyl-1-propanol] | 0.5 |
| CC(N)(CO)CO [AMPD, 2-amino-2-methyl-1,3-propanediol] | 0.0 |
| OCCN1CCN(CCO)CC1 [BHP, 1,4-Bis(2-hydroxyethyl)-piperazine, reference compound] | 0.1 |
| CN(C)C(C)(C)CO [DMAMP, 2-dimethylamino-methyl-1-propanol] | 0.7 |
